Each structure is given as a SMILES string. Active and inactive are the calls of the source. No cut-off for these calls is given here.

For data set [1], the system named is HepG2. The data set is described as follows: Induction of apoptosis in human HepG2 cells assessed as increase in PARP cleavage at 25 uM after 24 hrs by Western blotting. The data set is classed as functional, cell-based. In general terms: In western blotting, separated proteins are transferred to a membrane and probed.
In data set [2] the test system is HepG2. The data set is described as follows: Induction of apoptosis in human doxorubicin-resistant HepG2 cells expressing p-gp assessed as increase in PARP cleavage at 25 uM after 24 hrs by Western blotting. The data set is classed as functional, cell-based.
For data set [3], the system named is HepG2. Nature of the data set: Induction of apoptosis in human HepG2 cells assessed as activation of caspase-3/8/9 at 25 uM after 24 hrs by Western blotting. The data set is classed as functional, cell-based.
The test system of data set [4] is HepG2. The data set is described as follows: Induction of apoptosis in human doxorubicin-resistant HepG2 cells expressing p-gp assessed as activation of caspase-3/8/9 at 25 uM after 24 hrs by Western blotting. The data set is classed as functional, cell-based.
For data set [5], the system named is HepG2. Nature of the data set: Increase of SAPK/JNK phosphorylation in human HepG2 cells at 25 uM by Western blot analysis. The data set is classed as cell-based.
For data set [6], the system named is HepG2. Nature of the data set: Increase of SAPK/JNK phosphorylation in human doxorubicin-resistant HepG2 cells expressing p-gp at 25 uM by Western blot analysis. The data set is classed as cell-based.
For data set [7], the target named is T1, MAP kinase p38 (Homo sapiens) (UniProt O15264+Q15759+Q16539+P53778). The data set is described as follows: Inhibition of p38 MAPK phosphorylation in human HepG2 cells at 25 uM by Western blot analysis. The data set is classed as cell-based.
Data set [8] deals with T1, MAP kinase p38 (Homo sapiens). The data set is described as follows: Inhibition of p38 MAPK phosphorylation in human doxorubicin-resistant HepG2 cells expressing p-gp at 25 uM by Western blot analysis. The data set is classed as cell-based.
The target of data set [9] is T2, Mitogen-activated protein kinase; ERK1/ERK2 (Homo sapiens) (UniProt P27361+P28482). The data set is described as follows: Inhibition of ERK1/2 phosphorylation in human HepG2 cells at 25 uM by Western blot analysis. The data set is classed as cell-based.
In data set [10] the target is T2, Mitogen-activated protein kinase; ERK1/ERK2 (Homo sapiens). Nature of the data set: Inhibition of ERK1/2 phosphorylation in human doxorubicin-resistant HepG2 cells expressing p-gp at 25 uM by Western blot analysis. The data set is classed as cell-based.
For data set [11], the system named is HepG2. Nature of the data set: Effect on nonphosphorylated ERK1/ERK2 level in human HepG2 cells at 25 uM by Western blot analysis. The note with it: hepg2, 25 µM. The data set is classed as ADME, cell-based.
For data set [12], the system named is HepG2. The data set is described as follows: Effect on nonphosphorylated ERK1/ERK2 level in human doxorubicin-resistant HepG2 cells expressing p-gp at 25 uM by Western blot analysis. The data set is classed as ADME, cell-based. The note with it: hepg2, 25 µM.
The test system of data set [13] is HepG2. The data set is described as follows: Effect on nonphosphorylated p38 MAPK level in human HepG2 cells at 25 uM by Western blot analysis. The note with it: hepg2, 25 µM. The data set is classed as ADME, cell-based.
For data set [14], the system named is HepG2. Nature of the data set: Effect on nonphosphorylated p38 MAPK level in human doxorubicin-resistant HepG2 cells expressing p-gp at 25 uM by Western blot analysis. The data set is classed as ADME, cell-based. Particulars: hepg2, 25 µM.
The test system of data set [15] is HepG2. The data set is described as follows: Effect on nonphosphorylated SAPK/JNK level in human HepG2 cells at 25 uM by Western blot analysis. The data set is classed as ADME, cell-based. The note with it: hepg2, 25 µM.
Data set [16] relates to HepG2. The data set is described as follows: Effect on nonphosphorylated SAPK/JNK level in human doxorubicin-resistant HepG2 cells expressing p-gp at 25 uM by Western blot analysis. The data set is classed as ADME, cell-based. Particulars: hepg2, 25 µM.

T2 sequence (P27361 whole entry, looked up): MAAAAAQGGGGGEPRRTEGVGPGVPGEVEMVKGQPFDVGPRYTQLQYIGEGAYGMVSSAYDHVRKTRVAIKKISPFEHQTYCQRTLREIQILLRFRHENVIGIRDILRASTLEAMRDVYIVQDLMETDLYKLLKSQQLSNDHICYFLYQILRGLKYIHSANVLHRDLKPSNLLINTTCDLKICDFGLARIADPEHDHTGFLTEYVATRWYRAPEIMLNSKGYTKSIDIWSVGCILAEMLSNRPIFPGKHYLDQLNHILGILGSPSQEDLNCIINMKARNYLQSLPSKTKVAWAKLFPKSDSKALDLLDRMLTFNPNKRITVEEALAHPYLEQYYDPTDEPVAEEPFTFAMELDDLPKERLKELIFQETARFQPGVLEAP
T2 sequence (P28482 whole entry, looked up): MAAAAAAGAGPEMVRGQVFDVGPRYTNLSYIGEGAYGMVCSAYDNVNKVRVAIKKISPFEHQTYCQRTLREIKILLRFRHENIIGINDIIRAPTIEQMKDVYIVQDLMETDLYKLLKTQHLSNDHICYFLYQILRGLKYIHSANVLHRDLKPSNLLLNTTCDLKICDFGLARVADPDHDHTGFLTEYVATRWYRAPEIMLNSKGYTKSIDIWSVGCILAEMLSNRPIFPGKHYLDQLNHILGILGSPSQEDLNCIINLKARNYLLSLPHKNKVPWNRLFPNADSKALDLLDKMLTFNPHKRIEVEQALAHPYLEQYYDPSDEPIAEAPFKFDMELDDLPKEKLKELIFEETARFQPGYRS

Consider `Cc1cccc2c3c(ccc12)C1=C(C(=O)C3=O)[C@@H](C)CO1` [DIHYDROTANSHINONE I], for which the outcome with HepG2 [1], with HepG2 [2], in the data set with HepG2 [3], in the data set on HepG2 [4] and in the data set on HepG2 [5] was Active. Further, in the data set with HepG2 [6], the result was inactive. Moreover, the inhibition entry in data set [7], in [8] and in [10] was “Active” each time. The inhibition entry in [9] was “inactive”. Moreover, the Activity result in the data set on HepG2 [11], in the data set with HepG2 [12], in the data set with HepG2 [13], in the data set on HepG2 [14], in the data set with HepG2 [15] and in the data set on HepG2 [16] was “Non-toxic” each time.

Values taken from ChEMBL document CHEMBL3608289, “Miltirone Is a Dual Inhibitor of P-Glycoprotein and Cell Growth in Doxorubicin-Resistant HepG2 Cells” (J Nat Prod, 2015).
